Columns and labels:
chow diet fed mice = assay: Tolerability and toxicity of TOFA in ad libitum fed chow mice; type: in vivo, C57BL/6J male mice; conditions: oral gavage
Method: Eleven-week-old C57BL/6J male mice were fed with PicoLab Rodent Diet (Purina 5053), or chow diet, ad libitum while being treated with either control or 125 mg/kg, BID by oral gavage for three weeks. Mice weights were tracked during the entire time course. Upon study termination, serum and liver samples were collected. Serum biomarkers such as blood urea nitrogen (BUN) and creatinine were assessed by commercially available kits (abcam83362 and Cayman700460, respectively). Additionally, hepatic and serum triglyceride and cholesterol levels were measured by commercially available kits (abcam65336 and abcam65390, respectively).

PPAR signaling pathway = assay: RNA sequencing, qPCR and western blot of liver samples from CDAHFD late stage NAFLD/NASH mice; type: in vivo, C57BL/6 male mice
Method: Six-week-old C57BL/6 male mice were fed with a L-Amino Acid Diet With 60 kcal % Fat With 0.1% Methionine and No Added Choline (Research Diets A06071302i) for eight weeks before introduction of either vehicle (control) or 250 mg/kg of TOFA daily via twice daily controlled oral gavage for an additional four weeks (FIG. 3A). Upon study termination at 12 weeks, serum and liver samples were collected. Serum liver damage biomarkers, ALT and AST, were measured by commercially available kits (abcam105134 and abcam 105135, respectively). Hepatic and serum triglyceride levels were measured from a commercially available kit (abcam65336). Liver samples were fixed in 4% paraformaldehyde and embedded in paraffin blocks for sectioning and subsequently stained with hematoxylin and eosin (H&E) or Picrosirius Red with a fast green dye background. Frozen fresh liver tissue was embedded in OCT, sectioned, and subsequently stained with Oil Red O.
Liver samples were collected from mice in Example 3 (see above). Total RNA was extracted from liver tissues (Qiagen RNeasy kit), cDNA libraries were constructed (Roche KAPA HyperPrep kit), sequenced on the NovaSeq6000 platform (Novogene), and a downstream analysis pipeline was performed. Differentially expressed genes (DEGs) were defined by at least one log2-fold change (2-fold in linear scale) with an FDR cutoff of 0.05. For validation, total RNA was used to prepare cDNA (BioRAD iScript™ Reverse Transcription) according to manufacturer's protocol and quantitative polymerase chain reaction (qPCR) was performed with fast SYBR Green Mix (ThermoFisher) on the QuantStudio6 System (Applied Biosystems). Protein expression levels were measured by western blot using antibodies against very low density lipoprotein receptor (VLDLR) (AF2258, 1:2000) and btubulin (CST2146, 1:1000). Membranes were developed using a horse radish peroxidase (HRP) secondary antibody (1:5000) and visualized using an enhanced chemiluminescent HRP substrate (Thermo34577).

[1] = tested on: 60% kcal fat diet induced metabolic syndrome and early stage NAFLD in mice; assay: Rescue effect of TOFA in 60% kcal fat diet induced early-stage hepatic steatosis and associated metabolic disorders; type: in vivo, C57BL/6 male mice
Method: Six-week-old C57BL/6 male mice were fed with a 60 kcal % fat diet (Research Diets A12492i) for seven weeks before introduction of either vehicle (control) or 250 mg/kg initial loading dose of TOFA daily via twice daily oral gavage for one week (FIG. 2A). Mice were then treated with either vehicle (control) or 125 mg/kg maintenance dose of TOFA daily via twice daily gavage for three additional weeks. Mice weights were tracked during the entire time course. After three weeks of treatment, an intraperitoneal glucose tolerance test (IP-GTT) and insulin tolerance test (IP-ITT) were performed. Prior to these tests, mice were fasted for six hours before a challenge of either 1 g/kg D-glucose or 0.75 U/kg HumulinR (Eli Lilly) and blood glucose levels were monitored for two hours (Bayer Contour Next). Venous fasting blood was collected through the tail vein and used to measure fasting insulin levels by commercially available ELISA kits (CrystalChem90080). Prior to harvest, mice underwent whole body composition analysis (EchoMRI™ 2012). Upon study termination at 11 weeks, serum and liver samples were collected. Serum liver damage biomarkers, ALT and AST, were measured by commercially available kits (abcam 105134 and abcam105135, respectively). Hepatic and serum triglyceride levels were measured from a commercially available kit (abcam65336).

[2] = tested on: CDAHFD diet-induced NAFLD/NASH in wild-type mice; assay: TOFA in wild-type mice on CDAHFD (comparison to PPARA KO); type: in vivo, C57BL/6J (WT) mice
Method: Six-week-old genetic PPARA knockout (PPARA KO) male mice were fed with a L-amino acid diet with 60 kcal % fat with 0.1% methionine and no added choline (CDAHFD; Research Diets A06071302i) for three weeks or fed with a 60 kcal % fat diet (DIO; Research Diets A12492i) for eight weeks before introduction of either vehicle (control) or 125 mg/kg of TOFA, BID, via oral gavage for an additional two weeks (FIG. 11A and FIG. 11J, respectively). C57BL/6J (WT) mice were fed with the CDAHFD and underwent similar experimental conditions and time course. Mice weights and adverse events were monitored during the treatment time course. Upon study termination, serum and liver samples were collected. Serum liver damage biomarkers, ALT and AST, were measured by commercially available kits (abcam105134 and abcam 105135, respectively). Hepatic and serum triglyceride levels were measured from a commercially available kit (abcam65336). […] Quantitative PCR (qPCR) was performed with fast SYBR Green Mix (ThermoFisher A25742) on the QuantStudio6 System (Applied Biosciences). Protein expression levels of liver samples were measured by western blot using antibodies against ACC1/2 (CST3662, 1:1000), VLDLR (AF2258, 1:2000), CPT1A (CST12252, 1:1000), PPARA (abcam126285, 1:1000) and beta-tubulin (CST2146, 1:1000). […]

[3] = 125 mg/kg, BID, three weeks, chow diet
[4] = liver samples of Example 3, RNA-seq
[5] = 250 mg/kg daily 1 week then 125 mg/kg daily 3 weeks, twice daily oral gavage

CCCCCCCCCCCCCCOc1ccc(C(=O)O)o1 [TOFA, 5-(Tetradecyloxy)-2-furoic acid]
tolerability (chow diet fed mice; 125 mg/kg, BID, three weeks): well tolerated | body weight (chow diet fed mice; [3]): no observed weight change | cholesterol levels in serum (chow diet fed mice; [3]): No changes | cholesterol levels in the liver (chow diet fed mice; [3]): No changes | liver triglyceride levels (chow diet fed mice; [3]): observed decrease | serum blood urea nitrogen (BUN) (chow diet fed mice; [3]): no drug-induced kidney damage | serum creatinine (chow diet fed mice; [3]): no drug-induced kidney damage | serum triglyceride levels (chow diet fed mice; [3]): no significant change | oral bioavailability (chow diet fed mice; mice): orally bioavailable | protein expression levels of VLDLR (western blot) (PPAR signaling pathway; liver samples of Example 3): increase in protein expression levels | GSEA: inflammatory response (PPAR signaling pathway; [4]): negative correlation | GSEA: oxidative phosphorylation, fatty acid metabolism, peroxisomes (PPAR signaling pathway; [4]): significantly upregulated | genes of the PPAR signaling pathway (2021 KEGG human database) (PPAR signaling pathway; [4]): upregulated various genes under PPAR transcriptional control | expression of VLDLR gene (mRNA, qPCR) (PPAR signaling pathway; liver samples of Example 3, relative to r18S mRNA): significant increase | highest upregulated genes (RNA-seq of liver) (PPAR signaling pathway; liver samples of Example 3, FDR cutoff 0.05, 2-fold change): canonical PPAR-alpha target genes | body weight [1, 5]: weight loss compared to the vehicle control treated mice | fat mass relative to whole body weight (EchoMRI) [1, 5]: significant reduction of fat mass | food intake [1, 5]: without impacting food intake | lean mass relative to whole body weight (EchoMRI) [1, 5]: increase in lean mass | fasting blood glucose levels ([1]; after three weeks of treatment, 6 h fast): vast improvements | insulin tolerance test (IP-ITT) ([1]; after three weeks of treatment, 6 h fast, 0.75 U/kg HumulinR): improved insulin sensitivity | intraperitoneal glucose tolerance test (IP-GTT) ([1]; after three weeks of treatment, 6 h fast, 1 g/kg D-glucose): more glucose tolerant | fasting insulin levels ([1]; after three weeks of treatment, ELISA): significantly lower | hepatic levels of triglycerides ([1]; study termination at 11 weeks): significantly reduced | serum ALT ([1]; study termination at 11 weeks): no significant changes | serum AST ([1]; study termination at 11 weeks): no significant changes | serum levels of triglycerides ([1]; study termination at 11 weeks): significantly reduced | Cpt1a mRNA (RT-qPCR) ([2]; 125 mg/kg BID, two weeks): induction of Cpt1a mRNA | protein expression levels of CPT1A, VLDLR, and ACC1 (western blot) ([2]; relative to vehicle control): increased

From patent publication US20260034091A1, “Compositions and Methods for Treating Metabolic Disorders” (The Regents of the University of California, priority 2022, published 2026)
